From publication PMC8915600, “Optimization of experimental conditions for skin-PAMPA measurements” (ADMET & DMPK, 2020)
Read-outs that look alike come from different tables or passages of the source. Marks after values point to notes of the source that are not given here.

Columns and labels:
in vitro = settings: PAMPA, pH 7.4, log Pe
[1] = cited from earlier work
[2] = skin-PAMPA permeability assay (gradient-pH, UPLC-DAD); settings: for Papp at 4 h, 50 μM / Papp at 24 h, 50 μM: PAMPA; for RM (membrane retention): mole fraction, neutral form
[3] = skin-PAMPA membrane stability after pre-treatment at basic pH; settings: membrane soaked at pH 7, 8, 9, 10 for 30 min or 4 h; then assay 4 h with stirring, donor pH 5, acceptor pH 7.4; versus untreated membrane
[4] = parameters: method as in earlier work; settings: octanol-water partition coefficient; cited from earlier work
[5] = cited from earlier work; remark: listed apart in the source
[6] = logarithm of human skin permeation coefficient, neutral form, corrected for ionization in water and for temperature at 37 °C
[7] = pH 7.4, log Pe, optimized assay conditions (4 h incubation, stirring), measured at the pH corresponding to the neutral form, acceptor pH 7.4
[8] = optimized assay conditions (4 h incubation, stirring), measured at the pH corresponding to the neutral form, acceptor pH 7.4

In the case of `Oc1ccc(Cl)cc1Cl` [2,4-Dichlorophenol], the Papp at 4 h, 50 μM (in vitro) is listed as 120 ×10⁻⁶ cm/s and the “log Kp” value [1, 6] is listed as -4.30 cm/s.
In the case of `Cc1ccc(C(C)C)c(O)c1` [2-Isopropyl-5-Methylphenol (Thymol), 2-Isopropyl-5-Methylphenol], the “log Kp” value [1, 6] is listed as -4.35 cm/s and the Papp at 4 h, 50 μM [2, 7] is listed as 97.7 ×10⁻⁶ cm/s.
For `Cc1ccccc1N` [2-toluidine], the “change of skin-PAMPA log Pe after membrane treatment at basic pH” value [3] was “remain constant”.
For `Cc1cccc(O)c1` [3-Methylphenol (m-Cresol), 3-Methylphenol], the Papp (in vitro; [8]) is given as 46.8 ×10⁻⁶ cm/s and the “log Kp” value [1, 6] is given as -4.89 cm/s.
For `Nc1ccc(O)c([N+](=O)[O-])c1` [4-Amino-2-nitrophenol], the “log Kp” value [1, 6] is given as -5.91 cm/s and the Papp at 4 h, 50 μM [2, 7] is given as 25.7 ×10⁻⁶ cm/s.
For `Oc1ccc(Cl)cc1` [4-Chlorophenol], the “log Kp” value [1, 6] is listed as -4.52 cm/s.
In the case of `CCc1ccc(O)cc1` [4-Ethylphenol], the “log Kp” value [1, 6] is listed as -4.53 cm/s and the Papp at 4 h, 50 μM [2, 7] is listed as 64.6 ×10⁻⁶ cm/s.
For `COC(=O)Cc1ccc(O)cc1` [4-Hydroxy-methylphenylacetate], the “log Kp” value [1, 6] is given as -5.26 cm/s and the “log Pe” value [2, 8] is given as -5.07±0.09 cm/s.
For `OCc1ccc(O)cc1` [4-Hydroxybenzyl alcohol], the “log Kp” value [1, 6] is given as -6.26 cm/s and the Papp at 4 h, 50 μM [2, 7] is given as 1.41 ×10⁻⁶ cm/s.
In the case of `NC(=O)Cc1ccc(O)cc1` [4-Hydroxyphenylacetamide], the “log Kp” value [1, 6] is given as -6.89 cm/s and the Papp at 4 h, 50 μM [2, 7] is given as 0.851 ×10⁻⁶ cm/s.
In the case of `O=[N+]([O-])c1ccc(O)cc1` [4-Nitrophenol], the Papp (in vitro; [8]) is listed as 12.3 ×10⁻⁶ cm/s and the “log Kp” value [1, 6] is listed as -5.33 cm/s.
For `CCC1(CC)C(=O)NC(=O)NC1=O` [5,5-Diethylbarbituric acid (Barbital), 5,5-Diethylbarbituric acid], the Papp (in vitro) is given as 1.78 ×10⁻⁶ cm/s and the “log Kp” value ([1]; human) is given as -7.29 cm/s.
In the case of `CCC1(c2ccccc2)C(=O)NC(=O)NC1=O` [5-Ethyl-5-phenylbarbituric acid], the Papp (in vitro) is given as 0.891 ×10⁻⁶ cm/s and the “log Kp” value ([1]; human) is given as -6.68 cm/s.
In the case of `O=c1[nH]cc(F)c(=O)[nH]1` [5-Fluorouracil], the “log Po/w” value [4] is listed as -0.89, the pKa [5] is listed as 7.86 ^a and the “log Kp” value [1, 6] is listed as -6.82 cm/s. It also gave a Papp at 4 h, 50 μM ([2]; log Pe, with stirring, 4 h incubation, neutral form (donor pH 3.0, aminopyrine pH 7.0), acceptor pH 7.4, 32 °C) of 1.7 ×10⁻⁶ cm/s, a Papp at 24 h, 50 μM ([2]; log Pe, with stirring, 24 h incubation, neutral form (donor pH 3.0, aminopyrine pH 7.0), acceptor pH 7.4, 32 °C) of 0.692 ×10⁻⁶ cm/s and a Papp at 4 h, 50 μM ([2]; log Pe, without stirring, 4 h incubation, neutral form (donor pH 3.0, aminopyrine pH 7.0), acceptor pH 7.4, 32 °C) of 0.339 ×10⁻⁶ cm/s. The Papp at 24 h, 50 μM ([2]; log Pe, without stirring, 24 h incubation, neutral form (donor pH 3.0, aminopyrine pH 7.0), acceptor pH 7.4, 32 °C) was 0.851 ×10⁻⁶ cm/s, the “RM (membrane retention)” value ([2]; with stirring, 30 min incubation) was 0.00 and the “RM (membrane retention)” value ([2]; with stirring, 4 h incubation) was 0.04(±0.04). The “RM (membrane retention)” value ([2]; with stirring, 24 h incubation) was 0.08(±0.03), the “RM (membrane retention)” value ([2]; without stirring, 30 min incubation) was 0.00 and the “RM (membrane retention)” value ([2]; without stirring, 4 h incubation) was 0.01(±0.03). For the same compound, the “RM (membrane retention)” value ([2]; without stirring, 24 h incubation) was 0.05(±0.02), the “log Pe” value [2, 8] was -5.77±0.02 cm/s and the “log Pe” value ([2]; without stirring, 4 h incubation, neutral form (donor pH 3.0, aminopyrine pH 7.0), acceptor pH 7.4, 32 °C) was -6.47 cm/s.
`COc1c2occc2cc2ccc(=O)oc12` [8-Methoxypsoralen] gave a Papp at 4 h, 50 μM [2, 7] of 50.1 ×10⁻⁶ cm/s.
For `Cc1c(N(C)C)c(=O)n(-c2ccccc2)n1C` [Aminopyrine], the pKa ([5]; aqueous) is listed as 5.00 ^b and the “log Kp” value [1, 6] is listed as -6.55 cm/s.
In the case of `Nc1ccccc1` [Aniline], the Papp (in vitro) is listed as 28.2 ×10⁻⁶ cm/s and the “log Kp” value ([1]; human) is listed as -4.94 cm/s.
In the case of `O=C(OCc1ccccc1)c1cccnc1` [Benzyl nicotinate], the “log Kp” value [1, 6] is listed as -4.87 cm/s and the Papp at 4 h, 50 μM [2, 7] is listed as 69.2 ×10⁻⁶ cm/s.
For `Cn1c(=O)c2c(ncn2C)n(C)c1=O` [Caffeine], the “log Kp” value [1, 6] is given as -6.85 cm/s.
